From patent US20100035877A1, “METHODS AND COMPOSITIONS FOR TREATING PATHOLOGIES ASSOCIATED WITH BDNF SIGNALING” (priority 2006, published 2010)

Key:
[1] = tested on: NG neurons
[2] = tested on: BDNF protein in nodose ganglion (NG); assay: BDNF ELISA of intact nodose ganglion after in vivo CX546 treatment; design: species or system mouse; conditions: CX546 40 mg/kg i.p. b.i.d. 3 days; for NG BDNF content: mean±SEM, n=6
Protocol: (§1) Beginning on P25, wildtype and Mecp2 null littermates were acclimatized to the injection protocol to reduce stress, first by handling for 10 min./day for 3 days, followed by saline injections (0.9% NaCl, i.p., b.i.d.) at 8:00 AM and 8:00 PM, for an additional 3 days. Subsequently, mice were assigned either to drug treatment (CX546, 40 mg/kg in 16.5% 2-hydroxypropyl-β-cyclodextrin, i.p., b.i.d.) or vehicle injections (cyclodextrin alone). On the day of their last injection, mice were trained in the plethysmograph recording chamber for one hour. Eighteen to 24 hours after their last injection, on P35, mice were returned to the chamber for recording of respiratory activity.
(§2) Breathing was recorded in unrestrained mice using a whole-body flow plethysmograph (Buxco II; Buxco Research Systems, Wilmington, N.C.) in which a constant bias flow supply connected to the animal recording chamber ensured continuous inflow of fresh air (1 L/min.). Ambient temperature was maintained between 23 and 25° C. Breathing traces were analyzed using Biosystem XA software (Buxco Research Systems). After the recording sessions, mice were euthanized with CO2 and tissue processed for BDNF immunoassay.
BDNF protein levels in intact NG or in cultured NG cells were measured by ELISA using the BDNF Emax Immunoassay System (Promega). Protein extracts from one intact NG or from an equivalent number of cultured cells were used for ELISA.
(§3) Wildtype and Mecp2 null littermates were treated for 3 days with CX546 (40 mg/kg in cyclodextrin, i.p., b.i.d.) or vehicle. Respiratory function was monitored by whole-body plethysmography 18-24 hours after the last injection, as described in Methods. At the end of the recording session the mice were sacrificed and the NG removed for BDNF ELISA. […] Treatment of wildtype mice with CX546 had no effect on NO BDNF content.

[3] = in vivo; cited from earlier work
[4] = tested on: wildtype and Mecp2 null mice; assay: Whole-body plethysmography of respiratory function after CX546 treatment; assay type: in vivo, mouse; conditions: for effect on breathing frequency and minute volume/weight: CX546 40 mg/kg b.i.d. 3 days; for breathing frequency / Coefficient of variation of breathing frequency / minute volume/weight / tidal volume/weight: CX546 40 mg/kg i.p. b.i.d. 3 days; for breathing frequency: 18-24 h after last injection
Protocol: as §1, §2, §3

Row | Compound | BDNF protein compared to unstimulated controls [1] | increase in BDNF protein content compared to vehicle-treated mutants ([2]; P35 Mecp2 null mice) [%] | NG BDNF content ([2]; P35 Mecp2 null mice) [pg BDNF/mL] | NG BDNF content ([2]; P35 wildtype mice) [pg BDNF/mL] | effect on NG BDNF content ([2]; wildtype mice) | half-life [3] | effect on breathing frequency and minute volume/weight ([4]; P35 Mecp2 null mice) | breathing frequency ([4]; P35 Mecp2 null mice, n=9) [breath/min.] | Coefficient of variation of breathing frequency ([4]; P35 Mecp2 null mice, n=9) [%] | minute volume/weight ([4]; P35 Mecp2 null mice, n=9) [mL/min/g] | tidal volume/weight ([4]; P35 Mecp2 null mice, n=9) [µL/g] | breathing frequency ([4]; P35 wildtype mice, n=7) [breath/min.] | Coefficient of variation of breathing frequency ([4]; P35 wildtype mice, n=7) [%] | minute volume/weight ([4]; P35 wildtype mice, n=7) [mL/min/g] | tidal volume/weight ([4]; P35 wildtype mice, n=7) [µL/g] | effect on breathing frequency and minute volume/weight ([4]; wildtype mice)
1 | [Cl-].[K+] [KCI, potassium chloride] | significant increase | – | – | – | – | – | – | – | – | – | – | – | – | – | – | –
2 | O=C(c1ccc2c(c1)OCCO2)N1CCCCC1 [CX546, 1-(1,4-benzodioxan-6-ylcarbonyl)piperidine] | – | 42 | 114±4 | 167±5 | no effect | less than an hour | completely restores wildtype frequency and minute volume/weight | 176±8 | 23.4±1.5 | 1.13 ± 0.07 | 6.5 ± 0.3 | 177±6 | 18.5±1.2 | 1.14 ± 0.09 | 6.4 ± 0.5 | no effect
